Here are results for 30 molecules from patent US8822447B2, “Indazole compounds useful as ketohexokinase inhibitors” (Janssen Pharmaceutica NV, priority 2010, dated 2014).

The IC50 is the concentration that gives 50% inhibition.

For this assay, the target named is KHK (Homo sapiens (Human), UniProt P50053). Kind of assay: In Vitro KHK Enzyme Assay (HTMS).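 Further: primary screen measuring inhibition of KHK-catalysed conversion of D-fructose into fructose 1-phosphate.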 The assay is classed as biochemical. As to conditions: 200 μM fructose, 100 μM ATP, 2 nM KHK, 60 min at 25° C.; Fructose-1-P detected by high throughput mass spectrometry.
Sequence of KHK (P50053 whole entry): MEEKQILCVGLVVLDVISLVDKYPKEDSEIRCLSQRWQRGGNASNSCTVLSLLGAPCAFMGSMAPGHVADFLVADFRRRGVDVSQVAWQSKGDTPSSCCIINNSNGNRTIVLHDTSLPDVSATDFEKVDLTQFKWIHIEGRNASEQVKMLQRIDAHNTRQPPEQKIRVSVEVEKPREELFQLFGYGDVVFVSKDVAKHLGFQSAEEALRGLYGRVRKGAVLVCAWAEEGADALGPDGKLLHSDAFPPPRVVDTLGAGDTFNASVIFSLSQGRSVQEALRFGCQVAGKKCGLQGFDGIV
Turning to `CCOc1cc(-c2ccc(N3CC(C)NC(C)C3)cc2)nc2c1c(CC)nn2-c1ccccc1` (stereo not drawn) [Compound 104, 6-[4-(3,5-Dimethyl-piperazin-1-yl)-phenyl]-4-ethoxy-3-ethyl-1-phenyl-1H-pyrazolo[3,4-b]pyridine], half-maximal inhibition (IC50) required 14700 nM. Take `COc1ccc(-n2nc(SC)c3ccc(N4CCN(C5CCNCC5)CC4)cc32)cc1` [Compound 106, 1-(4-Methoxy-phenyl)-3-methylsulfanyl-6-(4-piperidin-4-yl-piperazin-1-yl)-1H-indazole]: half-maximal inhibition (IC50) required 360 nM.

The molecule `CSc1nn(-c2ccccc2)c2cc(OCC3CCNCC3)ccc12` [Compound 107, 3-Methylsulfanyl-1-phenyl-6-(piperidin-4-ylmethoxy)-1H-indazole] showed an IC50 of 440 nM. Next, `CCN(CC1CCNCC1)c1ccc2c(SC)nn(-c3ccccc3)c2c1` [Compound 108, Ethyl-(3-methylsulfanyl-1-phenyl-1H-indazol-6-yl)-piperidin-4-ylmethyl-amine]: 890 nM; `CSc1nn(-c2ccccc2)c2cc(NC3CCNCC3)ccc12` [Compound 109, (3-Methylsulfanyl-1-phenyl-1H-indazol-6-yl)-piperidin-4-yl-amine]: 770 nM; `CSc1nn(-c2ccc([N+](=O)[O-])cc2)c2cc(C(=O)NC3CCNCC3)ccc12` [Compound 110, 3-Methylsulfanyl-1-(4-nitro-phenyl)-1H-indazole-6-carboxylic acid piperidin-4-ylamide]: 9830 nM. Consider `CSc1nn(-c2ccc(N)cc2)c2cc(C(=O)NC3CCNCC3)ccc12` [Compound 111, 1-(4-Amino-phenyl)-3-methylsulfanyl-1H-indazole-6-carboxylic acid piperidin-4-ylamide], for which half-maximal inhibition (IC50) was put at 2610 nM. The same measure for `CSc1nn(-c2ccccc2)c2cc(NCC3CCNCC3)ccc12` [Compound 112, (3-Methylsulfanyl-1-phenyl-1H-indazol-6-yl)-piperidin-4-ylmethyl-amine]: 420 nM.

Take `CSc1nn(-c2ccc(N)cc2)c2cc(CN3CCNCC3)ccc12` [Compound 115, 4-(3-Methylsulfanyl-6-piperazin-1-ylmethyl-indazol-1-yl)-phenylamine]: the IC50 was > 51000 nM.

Turning to `CSc1nn(-c2ccc(N)cc2)c2cc(C3=CCNCC3)ccc12` [Compound 116, 4-[3-Methylsulfanyl-6-(1,2,3,6-tetrahydro-pyridin-4-yl)-indazol-1-yl]-phenylamine], 160 nM corresponded to half-maximal inhibition (IC50). Next, `CSc1nn(-c2cccc(C)c2)c2cc(N3CCNCC3)ccc12` [Compound 118, 3-Methylsulfanyl-6-piperazin-1-yl-1-m-tolyl-1H-indazole]: 4120 nM; `CSc1nn(-c2cccc(C)c2)c2cc(N3CCN(C4CCNCC4)CC3)ccc12` [Compound 119, 3-Methylsulfanyl-6-(4-piperidin-4-yl-piperazin-1-yl)-1-m-tolyl-1H-indazole]: 380 nM; `CSc1nn(-c2ccccc2)c2cc(OC3CCNCC3)ccc12` [Compound 121, 3-Methylsulfanyl-1-phenyl-6-(piperidin-4-yloxy)-1H-indazole]: 710 nM.

Molecule `COc1ccc(-n2nc(SC)c3ccc(N4CCNCC4)cc32)cc1` [Compound 122, 1-(4-Methoxy-phenyl)-3-methylsulfanyl-6-piperazin-1-yl-1H-indazole] had an IC50 of 830 nM. This IC50 and that of the molecule before are within 1.5-fold of each other. Next, `CSc1nn(-c2ccc([N+](=O)[O-])cc2)c2cc(C3=CCNCC3)ccc12` [Compound 124, 3-Methylsulfanyl-1-(4-nitro-phenyl)-6-(1,2,3,6-tetrahydro-pyridin-4-yl)-1H-indazole]: 490 nM; `CSc1nn(-c2cc(F)cc(F)c2)c2cc(N3CCN(C4CCNCC4)CC3)ccc12` [Compound 126, 1-(3,5-Difluoro-phenyl)-3-methylsulfanyl-6-(4-piperidin-4-yl-piperazin-1-yl)-1H-indazole]: 4220 nM. Next, `CSc1nn(-c2ccc(Br)cc2)c2cc(OCC3CCNCC3)ccc12` [Compound 128, 1-(4-Bromo-phenyl)-3-methylsulfanyl-6-(piperidin-4-ylmethoxy)-1H-indazole]: 920 nM.

`CSc1nn(-c2ccc([N+](=O)[O-])cc2)c2cc(CN3CCNCC3)ccc12` [Compound 130, 3-Methylsulfanyl-1-(4-nitro-phenyl)-6-piperazin-1-ylmethyl-1H-indazole] returned an IC50 of 44900 nM. Next, `CSc1nn(-c2ccccc2)c2cc(NC(=O)CN3CCNCC3)ccc12` [Compound 131, N-(3-Methylsulfanyl-1-phenyl-1H-indazol-6-yl)-2-piperazin-1-yl-acetamide]: 680 nM; `CSc1nn(-c2ccccc2)c2cc(NC(=O)CCN3CCNCC3)ccc12` [Compound 132, N-(3-Methylsulfanyl-1-phenyl-1H-indazol-6-yl)-3-piperazin-1-yl-propionamide]: 380 nM; `CSc1nn(-c2ccc([N+](=O)[O-])cc2)c2cc(C(=O)N3CCNCC3)ccc12` [Compound 133, [3-Methylsulfanyl-1-(4-nitro-phenyl)-1H-indazol-6-yl]-piperazin-1-yl-methanone]: > 51000 nM.

In the case of `CSc1nn(-c2ccc(F)cc2)c2cc(N3CCN(C4CCNCC4)CC3)ccc12` [Compound 135, 1-(4-Fluoro-phenyl)-3-methylsulfanyl-6-(4-piperidin-4-yl-piperazin-1-yl)-1H-indazole], half-maximal inhibition (IC50) was put at 1650 nM. The same measure for `CSc1nn(-c2ccccc2)c2cc(C(O)C3CCNCC3)ccc12` (stereo not drawn) [Compound 136, (3-Methylsulfanyl-1-phenyl-1H-indazol-6-yl)-piperidin-4-yl-methanol]: > 2000 nM; for `CSc1nn(-c2ccccc2)c2cc(C(O)c3ccncc3)ccc12` (stereo not drawn) [Compound 137, (3-Methylsulfanyl-1-phenyl-1H-indazol-6-yl)-pyridin-4-yl-methanol]: > 2000 nM; for `CSc1nn(-c2ccc(F)cc2)c2cc(C3=CCNCC3)ccc12` [Compound 139, 1-(4-Fluoro-phenyl)-3-methylsulfanyl-6-(1,2,3,6-tetrahydro-pyridin-4-yl)-1H-indazole]: 230 nM. The same measure for `COc1ccc(-n2nc(SC)c3ccc(C4=CCNCC4)cc32)cc1` [Compound 140, 1-(4-Methoxy-phenyl)-3-methylsulfanyl-6-(1,2,3,6-tetrahydro-pyridin-4-yl)-1H-indazole]: 90 nM; for `CSc1nn(-c2ccccc2)c2cc(C=CC3CCNCC3)ccc12` [Compound 141, 3-Methylsulfanyl-1-phenyl-6-(2-piperidin-4-yl-vinyl)-1H-indazole]: 230 nM. The same measure for `CSc1nn(-c2ccccc2)c2cc(C(=O)C3CCNCC3)ccc12` [Compound 142, (3-Methylsulfanyl-1-phenyl-1H-indazol-6-yl)-piperidin-4-yl-methanone]: 670 nM. In the case of `CSc1nn(-c2ccc([N+](=O)[O-])cc2)c2cc(C3=CCN(C(=O)CN)CC3)ccc12` [Compound 144, 2-Amino-1-{4-[3-methylsulfanyl-1-(4-nitro-phenyl)-1H-indazol-6-yl]-3,6-dihydro-2H-pyridin-1-yl}-ethanone], the IC50 was > 10000 nM. As to `CSc1nn(-c2cccc(C)c2)c2cc(C3=CCNCC3)ccc12` [Compound 147, 3-Methylsulfanyl-6-(1,2,3,6-tetrahydropyridin-4-yl)-1-(3-methylphenyl)-1H-indazole], half-maximal inhibition (IC50) required 30 nM. This counts as double-digit nanomolar.
